Test results from BindingDB's records for doi:10.1016/j.bmcl.2003.09.076 (Eli Lilly, 2003).
pIC50, pKi: −log10 of the molar value.

Key:
[1] = Binding affinity towards Protease using PNA assay […]
[2] = Cytotoxic activity in human liver Huh-7 cells
[3] = Inhibitory activity against Protease using replicon assay […] at 50 uM concentration

Row | pKi [1] | pIC50 [3] | Structure (SMILES) | pIC50 [2]
1 | 5.68 | – | CCCC(NC(=O)[C@@H]1[C@H]2CCC(F)(F)[C@H]2CN1C(=O)[C@@H](NC(=O)OC(C)C)C(C)(C)C)C(=O)C(=O)N[C@@H](C)c1ccccc1 (stereo partly drawn) [((S)-1-{(1S,3aR,6aS)-4,4-Difluoro-1-[1-((S)-1-phenyl-ethylaminooxalyl)-butylcarbamoyl]-hexahydro-cyclopenta[c]pyrrole-2-carbonyl}-2,2-dimethyl-propyl)-carbamic acid isopropyl ester] | < 4.00
2 | 5.17 | – | CCCC(NC(=O)[C@@H]1[C@H]2CCC(F)(F)[C@H]2CN1C(=O)[C@@H](NC(=O)OC(C)C)C(C)C)C(=O)C(=O)N[C@@H](C)c1ccccc1 (stereo partly drawn) [((S)-1-{(1S,3aR,6aS)-4,4-Difluoro-1-[1-((S)-1-phenyl-ethylaminooxalyl)-butylcarbamoyl]-hexahydro-cyclopenta[c]pyrrole-2-carbonyl}-2-methyl-propyl)-carbamic acid isopropyl ester] | < 4.00
3 | 5.72 | – | CCCC(NC(=O)[C@@H]1[C@H]2CCC[C@H]2CN1C(=O)[C@@H](NC(=O)OC(C)C)C(C)C)C(=O)C(=O)N[C@@H](C)c1ccccc1 (stereo partly drawn) [((S)-2-Methyl-1-{(1S,3aR,6aS)-1-[1-((S)-1-phenyl-ethylaminooxalyl)-butylcarbamoyl]-hexahydro-cyclopenta[c]pyrrole-2-carbonyl}-propyl)-carbamic acid isopropyl ester] | < 4.00
4 | 6.09 | – | CCCC(NC(=O)[C@@H]1[C@H]2CCC[C@H]2CN1C(=O)[C@@H](NC(=O)OC(C)C)C(C)(C)C)C(=O)C(=O)Nc1ccccc1 (stereo partly drawn) [{(S)-2,2-Dimethyl-1-[(1S,3aR,6aS)-1-(1-phenylaminooxalyl-butylcarbamoyl)-hexahydro-cyclopenta[c]pyrrole-2-carbonyl]-propyl}-carbamic acid isopropyl ester] | –

The remaining lines, values behind:

Row | Structure (SMILES) | pKi [1] | pIC50 [3] | pIC50 [2]
5 | CCCC(NC(=O)[C@@H]1[C@H]2CCC[C@H]2CN1C(=O)[C@@H](NC(=O)[C@H](O)C(C)C)C(C)C)C(=O)C(=O)NC1CC1 (stereo partly drawn) [(1S,3aR,6aS)-2-[(S)-2-((R)-2-Hydroxy-3-methyl-butyrylamino)-3-methyl-butyryl]-octahydro-cyclopenta[c]pyrrole-1-carboxylic acid (1-cyclopropylaminooxalyl-butyl)-amide] | 4.84 | – | < 4.00
6 | CCCC(NC(=O)[C@@H]1[C@H]2CCC[C@H]2CN1C(=O)[C@@H](NC(=O)[C@H](O)C(C)C)C(C)C)C(=O)C(=O)Nc1ccccc1 (stereo partly drawn) [(1S,3aR,6aS)-2-[(S)-2-((R)-2-Hydroxy-3-methyl-butyrylamino)-3-methyl-butyryl]-octahydro-cyclopenta[c]pyrrole-1-carboxylic acid (1-phenylaminooxalyl-butyl)-amide] | 5.74 | < 4.00 | –
7 | CCCC(NC(=O)[C@@H]1[C@H]2CCC(F)(F)[C@H]2CN1C(=O)[C@@H](NC(=O)[C@H](O)C(C)C)C(C)C)C(=O)C(=O)NC1CC1 (stereo partly drawn) [(1S,3aR,6aS)-4,4-Difluoro-2-[(S)-2-((R)-2-hydroxy-3-methyl-butyrylamino)-3-methyl-butyryl]-octahydro-cyclopenta[c]pyrrole-1-carboxylic acid (1-cyclopropylaminooxalyl-butyl)-amide] | 4.78 | – | –
